Measurements taken from patent publication US9987266B2, “Alkyl-amide-substituted pyridyl compounds useful as modulators of IL-12, IL-23 and/or IFNα responses” (BRISTOL-MYERS SQUIBB COMPANY, priority 2013, dated 2018).
Read-outs that look alike come from different tables or passages of the source.

How the values were obtained:
[1] = tested on: Kit225 T cells with STAT-dependent luciferase reporter stimulated with human recombinant IL-23; assay: Kit225 T cell assay, IL-23 stimulated STAT-dependent luciferase reporter; format: cell-based
Description: (§1) Kit225 T cells with a stably-integrated STAT-dependent luciferase reporter were plated in RPMI (Gibco) containing 10% heat-inactivated FBS (Gibco) and 100 U/mL PenStrep (Gibco). The cells were then stimulated with either 20 ng/mL human recombinant IL-23 or 200 U/mL human recombinant IFNα (PBL InterferonSource) for 5-6 hours. Luciferase expression was measured using the STEADY-GLO® Luciferase Assay System (Promega) according to the manufacturer's instructions.

[2] = target: T1, recombinantly expressed His-tagged protein corresponding to amino acids 575-869 of human Tyk2 (Homo sapiens, UniProt P29597); assay: Probe displacement assay (scintillation proximity, radiolabeled probe); format: binding; details: 2.5 nM Tyk2 (575-869), 40 nM [3H] probe, 30 minutes at room temperature
T1 construct: made in house
Description: The preparation of radiolabeled probe, (R)—N-(1-(3-(8-methyl-5-(methylamino)-8H-imidazo[4,5-d]thiazolo[5,4-b]pyridin-2-yl)phenyl)ethyl)-2-([^3H]methylsulfonyl)benzamide, was performed as described below: […]

[3] = tested on: Kit225 T cells with STAT-dependent luciferase reporter stimulated with human recombinant IFNα; assay: Kit225 T cell assay, IFNα stimulated STAT-dependent luciferase reporter; format: cell-based
Description: as §1

[4] = KIT225, 20 ng/mL human recombinant IL-23, 5-6 hours, luciferase, read-out: IL-23 Kit225 Reporter, LE (IC50)
[5] = KIT225, 200 U/mL human recombinant IFNα, 5-6 hours, luciferase, read-out: IFNa Kit225 Reporter, LE (IC50)
[6] = Homo sapiens, KIT225, read-out: IL-23 Kit225 Reporter, LE (IC50, μM)
[7] = Homo sapiens, KIT225, read-out: IFNa Kit225 Reporter, LE (IC50, μM)

T1 sequence (P29597 with tags, fused parts or gaps): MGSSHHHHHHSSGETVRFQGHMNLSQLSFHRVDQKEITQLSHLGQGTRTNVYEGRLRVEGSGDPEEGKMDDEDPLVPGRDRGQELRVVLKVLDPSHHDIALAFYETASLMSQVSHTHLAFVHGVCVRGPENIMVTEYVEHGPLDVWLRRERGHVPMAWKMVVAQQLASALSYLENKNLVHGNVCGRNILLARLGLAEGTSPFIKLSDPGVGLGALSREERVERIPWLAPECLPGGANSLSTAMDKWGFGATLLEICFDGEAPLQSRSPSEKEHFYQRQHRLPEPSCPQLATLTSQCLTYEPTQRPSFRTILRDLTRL

Row | IC50 [1, 4] [µM] | EC50 [2] [nM] | IC50 [3, 5] [µM] | Compound | IC50 [1, 6] [µM] | IC50 [3, 7] [µM]
1 | 5.69 | 720 | 8.51 | CNC(=O)c1cnc(NC(=O)C2CC2)cc1Nc1ccccc1C(C)(C)O [Example 19] |  | 
2 | 0.11 | 5.34 | 0.09 | CNC(=O)c1cnc(NC(=O)C2CC2)cc1Nc1cccc(-c2ccnn2C)c1OC [Example 33] |  | 
3 | 0.00478 | 3.81 | 0.01 | [2H]C([2H])([2H])NC(=O)c1cnc(NC(=O)C2CC2)cc1Nc1cccc(-c2ncn(C)n2)c1OC [Example 31] |  | 
4 | 0.3 | 20 | 0.24 | CNC(=O)c1cnc(NC(=O)C2CC2)cc1Nc1ccccc1S(C)(=O)=O [Example 1] |  | 
5 | 12.5 | 1020 | 3.89 | CNC(=O)c1cnc(NC(=O)COC)cc1Nc1ccc(F)c(F)c1OC [Example 23] |  | 
6 | 1.52 | 160 | 1.66 | [2H]C([2H])([2H])NC(=O)c1cnc(NC(=O)C2CC2)cc1Nc1cccc(-c2ccnn2CC)c1OC [Example 38] |  | 
7 | 3.15 | 170 | 0.87 | CNC(=O)c1cnc(NC(=O)C2CCC2)cc1Nc1ccccc1S(C)(=O)=O [Example 14] |  | 
8 | 0.03 | 6.17 | 0.01 | CNC(=O)c1cnc(NC(=O)C2CC2)cc1Nc1cccc(-c2ncn(C)n2)c1OC [Example 30] |  | 
9 | 2.12 | 80 | 1.24 | CNC(=O)c1cnc(NC(=O)C2CC2F)cc1Nc1ccccc1S(C)(=O)=O (stereo not shown) [Example 22] |  | 
10 | 0.05 | 7.19 | 0.02 | CNC(=O)c1cnc(NC(=O)C2CC2)cc1Nc1cccc(-c2cnn(C)c2)c1OC [Example 42] |  | 
11 | 12.5 | 90 | 3.37 | CCNC(=O)Nc1cc(Nc2ccccc2S(C)(=O)=O)c(C(=O)NC)cn1 [Example 16] |  | 
12 | 0.1 | 4.2 | 0.04 | [2H]C([2H])([2H])NC(=O)c1cnc(NC(=O)C2CC2)cc1Nc1cccc(-c2ccn(CC(F)F)n2)c1OC [Example 36] |  | 
13 | 0.02 | 6.42 | 0.00873 | [2H]C([2H])([2H])NC(=O)c1cnc(NC(=O)C2CC2)cc1Nc1cccc(-c2ccn(C)n2)c1OC [Example 34] |  | 
14 | 4.55 | 380 | 6.03 | CNC(=O)c1cnc(NC(=O)Cc2ccccn2)cc1Nc1ccccc1S(C)(=O)=O [Example 10] |  | 
15 | 2.09 | 760 | 12.5 | CNC(=O)c1cnc(NC(=O)C2CCOCC2)cc1Nc1ccccc1S(C)(=O)=O [Example 4] |  | 
16 | 0.02 | 5.46 | 0.03 | CNC(=O)c1cnc(NC(=O)C2CC2)cc1Nc1cccc(-c2nnc[nH]2)c1OC [Example 29] |  | 
17 | 2.26 | 140 | 1.85 | CNC(=O)c1cnc(NC(=O)C2CC2(F)F)cc1Nc1ccccc1S(C)(=O)=O (stereo not shown) [Example 21] |  | 
18 | 1.44 | 150 | 1.2 | CNC(=O)c1cnc(NC(=O)C2CC2)cc1Nc1cc(F)ccc1S(C)(=O)=O [Example 20] |  | 
19 | 1.88 | 800 | 8.93 | CNC(=O)c1cnc(NC(=O)C2CCCCC2)cc1Nc1ccccc1S(C)(=O)=O [Example 5] |  | 
20 | 0.01 | 5.56 | 0.01 | [2H]C([2H])([2H])NC(=O)c1cnc(NC(=O)C2CC2)cc1Nc1cccc(-c2csc(C)n2)c1OC [Example 45] |  | 

Row | IC50 [1, 4] [µM] | EC50 [2] [nM] | IC50 [3, 5] [µM] | Compound | IC50 [1, 6] [µM] | IC50 [3, 7] [µM]
21 | 6.61 | 540 | 9.91 | CNC(=O)c1cnc(NC(=O)C2CC2)cc1Nc1cccc(F)c1S(C)(=O)=O [Example 18] |  | 
22 | 2.95 | 240 | 2.49 | CCCC(=O)Nc1cc(Nc2ccccc2S(C)(=O)=O)c(C(=O)NC)cn1 [Example 11] |  | 
23 | 0.00731 | 1.63 | 0.00705 | CNC(=O)c1cnc(NC(=O)C2CC2)cc1Nc1cccc(-c2ccn(C)n2)c1OC [Example 32] |  | 
24 | 0.4 | 460 | 4.21 | CNC(=O)c1cnc(NC(=O)C(C)C)cc1Nc1ccccc1S(C)(=O)=O [Example 7] |  | 
25 | 7.06 | 430 | 12.5 | CNC(=O)c1cnc(NC(C)=O)cc1Nc1ccccc1S(C)(=O)=O [Example 2] |  | 
26 | 0.06 | 2.54 | 0.02 | [2H]C([2H])([2H])NC(=O)c1cnc(NC(=O)C2CC2)cc1Nc1cccc(-c2cnn(C)c2)c1OC [Example 43] |  | 
27 | 11.2 | 420 | 7.24 | CNC(=O)c1cnc(NC(C)=O)cc1Nc1ccc(F)c(F)c1OC [Example 24] |  | 
28 | 6.52 | 830 | 12.5 | CNC(=O)c1cnc(NC(=O)[C@@H]2CCCO2)cc1Nc1ccccc1S(C)(=O)=O [Example 3] |  | 
29 | 1.16 | 120 | 1.11 | CNC(=O)c1cnc(NC(=O)Cc2ccccc2)cc1Nc1ccccc1S(C)(=O)=O [Example 6] |  | 
30 | 0.69 | 50 | 0.34 | CNC(=O)c1cnc(NC(=O)C2CC2)cc1Nc1ccc(F)cc1S(C)(=O)=O [Example 15] |  | 
31 | 4.68 | 250 | 1 | CNC(=O)c1cnc(NC(=O)[C@H]2CC2(C)C)cc1Nc1ccccc1S(C)(=O)=O [Example 8] |  | 
32 | 4.42 | 230 | 0.58 | CNC(=O)c1cnc(NC(=O)Cc2ccc(OC)cc2)cc1Nc1ccccc1S(C)(=O)=O [Example 12] |  | 
33 | 11.4 | 200 | 9.54 | CNC(=O)Nc1cc(Nc2ccccc2S(C)(=O)=O)c(C(=O)NC)cn1 [Example 17] |  | 
34 | 0.07 | 10 | 0.04 | CNC(=O)c1cnc(NC(=O)C2CC2)cc1Nc1cccc(-c2nnc(C)o2)c1OC [Example 28] |  | 
35 | 0.00229 |  | 0.00117 | [2H]C([2H])([2H])NC(=O)c1cnc(NC(=O)C2CC2)cc1Nc1cccc(-c2nnn(C)n2)c1OC [Example 44] |  | 
36 | 0.17 | 3.86 | 0.16 | [2H]C([2H])([2H])NC(=O)c1cnc(NC(=O)C2CC2)cc1Nc1cccc(-c2ccn(CC(C)(C)O)n2)c1OC [Example 40] |  | 
37 | 0.022 |  | 0.013 | [2H]C([2H])([2H])NC(=O)c1cnc(NC(=O)C2CC2)cc1Nc1cccc(-c2ncc(F)cn2)c1OC [Example 46] |  | 
38 | 0.06 | 40 | 0.28 | [2H]C([2H])([2H])NC(=O)c1cnc(NC(=O)C2CC2)cc1Nc1cccc(-c2ccnn2C)c1OC [Example 35] |  | 
39 | 0.12 | 3.52 | 0.07 | [2H]C([2H])([2H])NC(=O)c1cnc(NC(=O)C2CC2)cc1Nc1cccc(-c2ccn(CC)n2)c1OC [Example 37] |  | 
40 | 0.23 | 40 | 0.1 | CNC(=O)c1cnc(NC(=O)C2CC2)cc1Nc1ccc(F)c(F)c1OC [Example 25] |  | 

Row | Compound | IC50 [1, 4] [µM] | EC50 [2] [nM] | IC50 [3, 5] [µM] | IC50 [1, 6] [µM] | IC50 [3, 7] [µM]
41 | CNC(=O)c1cnc(NC(=O)Nc2ccccc2)cc1Nc1ccccc1S(C)(=O)=O [Example 27] |  | 290 |  | 3.17 | 3.06
42 | CNC(=O)c1cnc(NC(=O)C2CCCc3ccccc32)cc1Nc1ccccc1S(C)(=O)=O (stereo not shown) [Example 9] |  | 940 |  | 13.3 | 2.56
43 | [2H]C([2H])([2H])NC(=O)c1cnc(NC(=O)C2CC2)cc1Nc1cccc(-c2ccn(CC(F)(F)F)n2)c1OC [Example 39] |  | 20 |  | 0.08 | 0.16
44 | [2H]C([2H])([2H])NC(=O)c1cnc(NC(=O)C2CC2)cc1Nc1cccc(-c2ccn(CCC#N)n2)c1OC [Example 41] |  | 2.74 |  | 0.19 | 0.09
